Reference: PubChem BioAssay AID248 (DTP/NCI, 2004)
“And” between values parts separate entries of the source, which are not always exact repeats. Equal values may be shown once. Toxic doses and inconclusive results are not listed. No stated cut-off is given here; in the data, active means T/C of 150% or more; inactive means T/C below 125%.

Tested on: L1210 leukemia ip in BDF1 mice, survival T/C
Experiment: NCI In Vivo Anticancer Drug Screen. Data for tumor model L1210 Leukemia (intraperitoneal) in B6D2F1 (BDF1) mice
Settings: endpoint: mean survival time, higher = longer survival
Outline: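 Tumor was transplanted into mice, which were then dosed with test compound or vehicle alone. Survival was recorded for each group, and the treated figure was expressed relative to the control figure.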

[1] = dose: 100.0 mg/kg/injection, schedule: Q01DX001 (ip), vehicle: saline
[2] = dose: 200.0 mg/kg/injection, schedule: Q01DX001 (ip), vehicle: saline
[3] = dose: 400.0 mg/kg/injection, schedule: Q01DX001 (ip), vehicle: saline
[4] = dose: 50.0 mg/kg/injection, schedule: Q01DX009 (ip), vehicle: Klucel (hydroxypropylcellulose) (HPC)
[5] = dose: 100.0 mg/kg/injection, schedule: Q01DX009 (ip), vehicle: Klucel (hydroxypropylcellulose) (HPC)
[6] = dose: 100.0 mg/kg/injection, schedule: Q04DX002 (ip), vehicle: Klucel (hydroxypropylcellulose) (HPC)
[7] = dose: 200.0 mg/kg/injection, schedule: Q01DX009 (ip), vehicle: Klucel (hydroxypropylcellulose) (HPC)
[8] = dose: 200.0 mg/kg/injection, schedule: Q04DX002 (ip), vehicle: Klucel (hydroxypropylcellulose) (HPC)
[9] = dose: 400.0 mg/kg/injection, schedule: Q01DX009 (ip), vehicle: Klucel (hydroxypropylcellulose) (HPC)
[10] = dose: 100.0 mg/kg/injection, schedule: Q04DX003 (ip), vehicle: Klucel (hydroxypropylcellulose) (HPC)
[11] = dose: 200.0 mg/kg/injection, schedule: Q04DX003 (ip), vehicle: Klucel (hydroxypropylcellulose) (HPC)
[12] = dose: 400.0 mg/kg/injection, schedule: Q04DX003 (ip), vehicle: Klucel (hydroxypropylcellulose) (HPC)

Measured: T/C

CCOC(=O)NNP(=O)(NNC(=O)OCC)c1ccccc1
inactive: dose: 100.0 mg/kg/injection, schedule: Q01DX001 (ip), vehicle: carboxymethylcellulose (CMC) 101 % of control | dose: 100.0 mg/kg/injection, schedule: Q01DX009 (ip), vehicle: carboxymethylcellulose (CMC) 94 % of control | dose: 100.0 mg/kg/injection, schedule: Q04DX002 (ip), vehicle: carboxymethylcellulose (CMC) 98 % of control | dose: 100.0 mg/kg/injection, schedule: Q04DX003 (ip), vehicle: carboxymethylcellulose (CMC) 98 % of control | dose: 200.0 mg/kg/injection, schedule: Q01DX001 (ip), vehicle: carboxymethylcellulose (CMC) 104 % of control | dose: 200.0 mg/kg/injection, schedule: Q01DX009 (ip), vehicle: carboxymethylcellulose (CMC) 94 % of control and 98 % of control | dose: 200.0 mg/kg/injection, schedule: Q04DX002 (ip), vehicle: carboxymethylcellulose (CMC) 91 % of control | dose: 200.0 mg/kg/injection, schedule: Q04DX003 (ip), vehicle: carboxymethylcellulose (CMC) 102 % of control | dose: 400.0 mg/kg/injection, schedule: Q01DX001 (ip), vehicle: carboxymethylcellulose (CMC) 92 % of control | dose: 400.0 mg/kg/injection, schedule: Q01DX009 (ip), vehicle: carboxymethylcellulose (CMC) 108 % of control and 109 % of control | dose: 400.0 mg/kg/injection, schedule: Q04DX002 (ip), vehicle: carboxymethylcellulose (CMC) 94 % of control | dose: 400.0 mg/kg/injection, schedule: Q04DX003 (ip), vehicle: carboxymethylcellulose (CMC) 101 % of control

C1CCC(C2CCCC2)C1
inactive: dose: 100.0 mg/kg/injection, schedule: Q04DX002 (ip), vehicle: saline with Tween-80 100 % of control | dose: 200.0 mg/kg/injection, schedule: Q04DX002 (ip), vehicle: saline with Tween-80 89 % of control | dose: 400.0 mg/kg/injection, schedule: Q04DX002 (ip), vehicle: saline with Tween-80 110 % of control

CSCCC(O)C(=O)O (centres undefined)
inactive: [1] 101 % of control | [2] 95 % of control | [3] 101 % of control

CN(C)N=Nc1cc2c(cc1O)CC[C@@H]1[C@@H]2CC[C@]2(C)C(=O)CC[C@@H]12
inactive: dose: 25.0 mg/kg/injection, schedule: Q01DX009 (ip), vehicle: Klucel (hydroxypropylcellulose) (HPC) 97 % of control | [4] 90 % of control | dose: 50.0 mg/kg/injection, schedule: Q04DX002 (ip), vehicle: Klucel (hydroxypropylcellulose) (HPC) 90 % of control | [5] 110 % of control | [6] 90 % of control | [7] 103 % of control | [8] 87 % of control | [9] 96 % of control

S=C(N/N=C/c1ccncc1)Nc1ccccc1
inactive: dose: 100.0 mg/kg/injection, schedule: Q01DX001 (ip), vehicle: Klucel (hydroxypropylcellulose) (HPC) 96 % of control | [5] 97 % of control and 100 % of control | [6] 102 % of control and 91 % of control | [10] 103 % of control | dose: 200.0 mg/kg/injection, schedule: Q01DX001 (ip), vehicle: Klucel (hydroxypropylcellulose) (HPC) 100 % of control | [7] 108 % of control | [8] 98 % of control and 102 % of control | [11] 106 % of control | dose: 400.0 mg/kg/injection, schedule: Q01DX001 (ip), vehicle: Klucel (hydroxypropylcellulose) (HPC) 98 % of control | [9] 94 % of control and 104 % of control | dose: 400.0 mg/kg/injection, schedule: Q04DX002 (ip), vehicle: Klucel (hydroxypropylcellulose) (HPC) 97 % of control and 98 % of control | [12] 94 % of control

CCOCCC(=O)NCc1ccccc1
inactive: dose: 100.0 mg/kg/injection, schedule: Q01DX001 (ip), vehicle: saline with Tween-80 100 % of control | dose: 200.0 mg/kg/injection, schedule: Q01DX001 (ip), vehicle: saline with Tween-80 104 % of control | dose: 400.0 mg/kg/injection, schedule: Q01DX001 (ip), vehicle: saline with Tween-80 106 % of control

CC1CCC(C2=CSC3CCCCC3N2)CC1 (centres undefined)
inactive: dose: 100.0 mg/kg/injection, schedule: Q04DX002 (ip), vehicle: other 105 % of control | dose: 200.0 mg/kg/injection, schedule: Q04DX002 (ip), vehicle: other 94 % of control | dose: 400.0 mg/kg/injection, schedule: Q04DX002 (ip), vehicle: other 94 % of control

C=CCCC1CC(C(C)C)CC2(C1)OCCO2 (centres undefined)
inactive: dose: 50.0 mg/kg/injection, schedule: Q01DX009 (ip), vehicle: saline with Tween-80 96 % of control | dose: 100.0 mg/kg/injection, schedule: Q01DX009 (ip), vehicle: saline with Tween-80 96 % of control

COC(=O)C(c1ccccc1)C1(O)CCN(Cc2ccccc2)CC1 (centres undefined)
inactive: dose: 75.0 mg/kg/injection, schedule: Q04DX003 (ip), vehicle: Klucel (hydroxypropylcellulose) (HPC) 98 % of control | dose: 150.0 mg/kg/injection, schedule: Q04DX003 (ip), vehicle: Klucel (hydroxypropylcellulose) (HPC) 101 % of control | dose: 300.0 mg/kg/injection, schedule: Q04DX003 (ip), vehicle: Klucel (hydroxypropylcellulose) (HPC) 90 % of control

CN(CC(O)CN)c1ccccc1 (centres undefined)
inactive: [1] 102 % of control | [2] 94 % of control

CC(C)(C)NC(=O)C1CC2(C)CCC1C2(C)C (centres undefined)
inactive: dose: 75.0 mg/kg/injection, schedule: Q01DX001 (ip), vehicle: other 93 % of control | dose: 150.0 mg/kg/injection, schedule: Q01DX001 (ip), vehicle: other 93 % of control

CCOC(=O)Nc1ccc(SC)cc1
inactive: dose: 100.0 mg/kg/injection, schedule: Q01DX009 (ip), vehicle: saline 94 % of control | dose: 200.0 mg/kg/injection, schedule: Q01DX009 (ip), vehicle: saline 100 % of control | dose: 400.0 mg/kg/injection, schedule: Q01DX009 (ip), vehicle: saline 103 % of control

COC(=O)C[P+](c1ccccc1)(c1ccccc1)c1ccccc1
inactive: dose: 15.0 mg/kg/injection, schedule: Q01DX001 (ip), vehicle: saline 93 % of control | dose: 30.0 mg/kg/injection, schedule: Q01DX001 (ip), vehicle: saline 89 % of control | dose: 60.0 mg/kg/injection, schedule: Q01DX001 (ip), vehicle: saline 86 % of control

CC(/C=N/NC(N)=S)Cc1ccc(C(C)C)cc1 (centres undefined)
inactive: dose: 12.5 mg/kg/injection, schedule: Q04DX003 (ip), vehicle: saline with Tween-80 98 % of control | dose: 18.0 mg/kg/injection, schedule: Q01DX009 (ip), vehicle: alcohol 95 % of control | dose: 28.0 mg/kg/injection, schedule: Q01DX009 (ip), vehicle: alcohol 95 % of control

O=[N+]([O-])C1CC12c1ccccc1-c1ccccc12 (centres undefined)
inactive: dose: 75.0 mg/kg/injection, schedule: Q01DX001 (ip), vehicle: carboxymethylcellulose (CMC) 106 % of control | dose: 150.0 mg/kg/injection, schedule: Q01DX001 (ip), vehicle: carboxymethylcellulose (CMC) 103 % of control | dose: 300.0 mg/kg/injection, schedule: Q01DX001 (ip), vehicle: carboxymethylcellulose (CMC) 97 % of control

OC[C@@H]1CC[C@H](n2cnc3c(Cl)ncnc32)C1
inactive: [1] 103 % of control | [2] 101 % of control | [3] 101 % of control

O=C(Nc1ccc(Cl)c(Cl)c1)Oc1ccc2ccccc2c1
inactive: [5] 90 % of control | [10] 104 % of control | [7] 101 % of control | [11] 90 % of control | [9] 95 % of control | [12] 90 % of control

O=c1nc(NCCc2cnc[nH]2)nc(NCCc2cnc[nH]2)[nH]1
inactive: [4] 100 % of control | [5] 100 % of control | [7] 92 % of control

CC(=O)CC(=O)CF.CC(=O)CC(=O)CF.[Cu]
inactive: dose: 12.0 mg/kg/injection, schedule: Q01DX001 (ip), vehicle: saline 90 % of control | dose: 25.0 mg/kg/injection, schedule: Q01DX001 (ip), vehicle: saline 107 % of control
